Patent US20090054235A1, “Benzoheterocyclylethylbenzamide derivatives” (priority 2005, published 2009)

Test system: Pyrenophora teres
Experiment: In vivo test on Pyrenophora teres (preventive spray on barley plants)
Conditions: barley plants (Express variety), grading 12 days after contamination, in comparison with control plants
Method: The active ingredient tested is prepared by potter homogenisation in a concentrated suspension type formulation at 100 g/l. This suspension is then diluted with water to obtain the desired active material concentration.
Barley plants (Express variety) in starter cups, sown on a 50/50 peat soil-pozzolana substrate and grown at 12° C., are treated at the 1-leaf stage (10 cm tall) by spraying with the aqueous suspension described above. Plants, used as controls, are treated with an aqueous solution not containing the active material. After 24 hours, the plants are contaminated by spraying them with an aqueous suspension of Pyrenophora teres spores (12,000 spores per ml). The spores are collected from a 12-day-old culture. The contaminated barley plants are incubated for 24 hours at about 20° C. and at 100% relative humidity, and then for 12 days at 80% relative humidity.
Grading is carried out 12 days after the contamination, in comparison with the control plants.

Structure (SMILES)	protection (dose of 500 ppm)	protection (dose of 330 ppm)
O=C(NCCc1c[nH]c2ccc(Br)cc12)c1ccccc1Cl [N.[2-(5-bromo-1H-indol-3-yl)ethyl]-2-chlorobenzamide]	no protection at all	–
O=C(NCCc1c[nH]c2ccc(Br)cc12)c1ccccc1I [N.[2-(5-bromo-1H-indol-3-yl)ethyl]-2-iodobenzamide]	no protection at all	–
O=C(NCCc1c[nH]c2ccc(Br)cc12)c1ccccc1C(F)F [N.[2-(5-bromo-1H-indol-3-yl)ethyl]-2-(difluoromethyl)benzamide]	no protection at all	–
O=C(NCCc1c[nH]c2ccc(Br)cc12)c1ccccc1C(F)(F)F [N.[2-(5-bromo-1H-indol-3-yl)ethyl]-2-(trifluoromethyl)benzamide]	–	no protection at all
